The values that follow come from PubChem BioAssay AID276 (DTP/NCI, 2004).

Structures are written as SMILES. Where “and” joins values, the source holds several entries; their conditions need not be identical. Identical values can stand only once. Inconclusive results and toxic doses are left out.

The test system of the assay is B6C3F1 mice, Lewis lung carcinoma iv, survival T/C. The experiment in a line: NCI In Vivo Anticancer Drug Screen. Data for tumor model Lewis Lung Carcinoma (intravenous) in B6C3F1 mice. The conditions noted are these: endpoint: median survival time, schedule: Q01DX009 (ip), higher = longer survival. The procedure: The antitumor activity of compounds was measured in mice bearing transplantable tumors. Survival or tumor size were measured and the results are expressed as the measurement made in the treated group (T) divided by the measurement made in the vehicle treated control group (C). The tumor model used in this assay is Lewis Lung Carcinoma (intravenous) in B6C3F1 mice

Setting [1] is: dose: 12.5 mg/kg/injection, vehicle: Klucel (hydroxypropylcellulose) (HPC).
Where [2] appears, read: dose: 25.0 mg/kg/injection, vehicle: Klucel (hydroxypropylcellulose) (HPC).
Where [3] appears, read: dose: 50.0 mg/kg/injection, vehicle: Klucel (hydroxypropylcellulose) (HPC).
[4] abbreviates: dose: 100.0 mg/kg/injection, vehicle: Klucel (hydroxypropylcellulose) (HPC).
Setting [5] is: dose: 50.0 mg/kg/injection, vehicle: saline.
Setting [6] is: dose: 100.0 mg/kg/injection, vehicle: saline.
Where [7] appears, read: dose: 200.0 mg/kg/injection, vehicle: saline.
[8] abbreviates: dose: 12.5 mg/kg/injection, vehicle: saline with Tween-80.
Where [9] appears, read: dose: 25.0 mg/kg/injection, vehicle: saline with Tween-80.
Where [10] appears, read: dose: 50.0 mg/kg/injection, vehicle: saline with Tween-80.
Setting [11] is: dose: 25.0 mg/kg/injection, vehicle: saline.
Setting [12] is: dose: 3.12 mg/kg/injection, vehicle: saline.
Setting [13] is: dose: 6.25 mg/kg/injection, vehicle: saline.
[14] abbreviates: dose: 12.5 mg/kg/injection, vehicle: saline.
Where [15] appears, read: dose: 1.56 mg/kg/injection, vehicle: saline.

Consider `COc1cc2oc(=O)ccc2cc1[C@@H]1OC(=O)C2(C)O[C@@H]12` (stereo partly specified), for which the T/C reads like this: (dose: 0.16 mg/kg/injection, vehicle: water) 106 % of control; (dose: 0.31 mg/kg/injection, vehicle: water) 94 % of control and 96 % of control; (dose: 0.62 mg/kg/injection, vehicle: water) 99 % of control and 112 % of control; (dose: 1.25 mg/kg/injection, vehicle: water) 91 % of control and 100 % of control; (dose: 2.5 mg/kg/injection, vehicle: water) 95 % of control and 100 % of control; (dose: 5.0 mg/kg/injection, vehicle: water) 97 % of control and 98 % of control. Moreover, for the setting “dose: 10.0 mg/kg/injection, vehicle: water”, the T/C is 94 % of control.

In the case of `CC(C)(C)C1CCCCC1`, the T/C is 92 % of control under setting [1]; 93 % of control under setting [2]; 108 % of control under setting [3]; 101 % of control under setting [4]; 103 % of control (dose: 200.0 mg/kg/injection, vehicle: Klucel (hydroxypropylcellulose) (HPC)); 96 % of control (dose: 400.0 mg/kg/injection, vehicle: Klucel (hydroxypropylcellulose) (HPC)).

In the case of `CCCCCn1c(C)cc(/C=C\c2ccc3cc(C)ccc3[n+]2C)c1C`, the T/C (dose: 37.5 micrograms/kg/injection, vehicle: Klucel (hydroxypropylcellulose) (HPC)) is 107 % of control; the T/C (dose: 75.0 micrograms/kg/injection, vehicle: Klucel (hydroxypropylcellulose) (HPC)) is 109 % of control; the T/C (dose: 150.0 micrograms/kg/injection, vehicle: Klucel (hydroxypropylcellulose) (HPC)) is 104 % of control; the T/C (dose: 300.0 micrograms/kg/injection, vehicle: Klucel (hydroxypropylcellulose) (HPC)) is 97 % of control.

`CC[As](=O)(O)CC`: the T/C under setting [5] is 95 % of control, the T/C under setting [6] is 103 % of control and the T/C under setting [7] was 103 % of control.

As for `COc1cc(Cc2nccc3cc(OC)c(OC)cc23)c(C(C)=O)cc1OC`, the T/C is, setting by setting: under setting [1], 98 % of control; under setting [2], 120 % of control; under setting [3], 106 % of control; under setting [4], 101 % of control.

As for `CCCCCCCCCCCCCC#CC(=O)O`, the T/C is 97 % of control (dose: 3.12 mg/kg/injection, vehicle: saline with Tween-80); 93 % of control (dose: 6.25 mg/kg/injection, vehicle: saline with Tween-80); 101 % of control under setting [8]; 89 % of control under setting [9]; 93 % of control under setting [10].

In the case of `BrC1CC(Br)c2c1c1c(c3c2C(Br)CC3Br)C(Br)CC1Br` (stereo unspecified), the T/C was 99 % of control under setting [8]; 103 % of control under setting [9]; 92 % of control under setting [10]; 121 % of control (dose: 200.0 mg/kg/injection, vehicle: saline with Tween-80); 112 % of control (dose: 400.0 mg/kg/injection, vehicle: saline with Tween-80).

Take `O=C(NO)c1cc(O)c(O)c(O)c1`: the T/C is 100 % of control (dose: 25.0 mg/kg/injection, vehicle: water); 98 % of control (dose: 50.0 mg/kg/injection, vehicle: water); 100 % of control (dose: 100.0 mg/kg/injection, vehicle: water); 110 % of control (dose: 200.0 mg/kg/injection, vehicle: water); 93 % of control (dose: 400.0 mg/kg/injection, vehicle: water).

Regarding `NCCCC(N)(C(=O)O)C(F)F` (stereo unspecified), the T/C reads like this: (dose: 50.0 mg/kg/injection, vehicle: distilled water + alcohol) 100 % of control; (dose: 100.0 mg/kg/injection, vehicle: distilled water + alcohol) 104 % of control; (dose: 200.0 mg/kg/injection, vehicle: distilled water + alcohol) 105 % of control; (dose: 400.0 mg/kg/injection, vehicle: distilled water + alcohol) 103 % of control; (dose: 800.0 mg/kg/injection, vehicle: distilled water + alcohol) 96 % of control.

For `CCNC(=O)[B-][N+](C)(C)C`, the T/C is 98 % of control under setting [1], 103 % of control under setting [2], 100 % of control under setting [3] and 106 % of control under setting [4].

Take `COc1cccc2c1C(=O)c1c(O)c3c(c(O)c1C2=O)C[C@@](O)(C(=O)CO)C[C@@H]3OC1CC(OC(C)=O)C(OC(C)=O)C(C)O1` (stereo partly specified): the T/C reads like this: (dose: 0.78 mg/kg/injection, vehicle: water) 91 % of control; (dose: 1.5 mg/kg/injection, vehicle: water) 119 % of control; (dose: 1.56 mg/kg/injection, vehicle: distilled water + Tween-80) 106 % of control; (dose: 1.56 mg/kg/injection, vehicle: water) 103 % of control; (dose: 3.0 mg/kg/injection, vehicle: water) 111 % of control; (dose: 3.12 mg/kg/injection, vehicle: distilled water + Tween-80) 113 % of control. In addition, the T/C by setting is: (dose: 3.12 mg/kg/injection, vehicle: water) 111 % of control; (dose: 12.0 mg/kg/injection, vehicle: water) 266 % of control; (dose: 12.5 mg/kg/injection, vehicle: distilled water + Tween-80) 285 % of control.

Consider `CN1CCN(c2ccc([N+](=O)[O-])c3no[n+]([O-])c23)CC1`, for which the T/C runs as follows: (dose: 5.0 mg/kg/injection, vehicle: saline with Tween-80) 120 % of control; (dose: 10.0 mg/kg/injection, vehicle: saline with Tween-80) 111 % of control.

As to `Nc1ncnc2c1cnn2Cc1ccc(Cl)cc1`, the T/C is 94 % of control under setting [11], 106 % of control under setting [5], 111 % of control under setting [6] and 93 % of control under setting [7].

Take `CN(C)CCNc1ccc([N+](=O)[O-])c2sc3ccccc3c(=O)c12`: the T/C was 96 % of control under setting [12], 108 % of control under setting [13], 115 % of control under setting [14] and 119 % of control under setting [11].

For the compound `Brc1c(NC2=NCCN2)ccc2nccnc12`, the T/C under setting [15] is 103 % of control; the T/C under setting [12] is 114 % of control; the T/C under setting [13] is 100 % of control; the T/C under setting [14] is 101 % of control; the T/C under setting [11] was 101 % of control; the T/C under setting [5] was 112 % of control.

As to `C/C(=N\N=C(/[Se])N1CC2CCC(CC2)C1)c1ccccn1`, the T/C was 106 % of control (dose: 1.5 mg/kg/injection, vehicle: Klucel (hydroxypropylcellulose) (HPC)); 103 % of control (dose: 3.0 mg/kg/injection, vehicle: Klucel (hydroxypropylcellulose) (HPC)); 110 % of control (dose: 6.25 mg/kg/injection, vehicle: Klucel (hydroxypropylcellulose) (HPC)).

For the compound `ClCCCN1CCCCC1CCl` (stereo unspecified), the T/C was 101 % of control (dose: 0.78 mg/kg/injection, vehicle: saline); 108 % of control under setting [15]; 98 % of control under setting [12]; 101 % of control under setting [13]; 121 % of control under setting [14].
